# Measurements as given in US20240279218A1 (Hoffmann-La Roche Inc., priority 2016, published 2024).
# What was measured:
# h-GABA-A α5β3γ2 [1] = biological target: T1, h-GABA-A α5β3γ2 (Homo sapiens (Human), UniProt P18507+P31644); experiment: Two-electrode voltage clamp electrophysiology in Xenopus oocytes expressing GABAA receptors, modulation of GABA EC20 current; type: cell-based; conditions: for Efficacy (GABA) %: % modulation of GABA EC20 = 100*(Fold increase−1); for Efficacy (GABA) % / Fold increase h-GABA-A α5β3γ2 oocyte: Xenopus oocytes; for Fold increase h-GABA-A α5β3γ2 oocyte: GABA EC20, test compound at approx. 30 fold its Ki
# Protocol: Xenopus laevis oocytes at maturation stages V-VI were used for the expression of cloned mRNA encoding GABAA receptor subunits. Oocytes ready for RNA micro-injection were bought from Ecocyte, Castrop-Rauxel, Germany and stored in modified Barth's medium (composition in mM: NaCl 88, KCl 1, NaHCO32.4, HEPES 10, MgSO4 0.82, CaNO3 0.33, CaCl2) 0.33, pH=7.5) at 20° C. until the experiment.
# Oocytes were plated in 96-well plates to be used in an automated instrument (Robo-ocyte, MultiChannelSystems, Reutlingen, Germany) for microinjection and electrophysiological recordings. Approximately 50 nl of an aqueous solution containing the RNA transcripts for the subunits of the desired GABAA receptor was injected into each oocyte. RNA concentrations ranged between 0.3 and 16 ng/μl/subunit and were adjusted in pilot experiments to obtain GABA responses of a suitable size and a maximal effect of the reference modulator, Beta-CCM (β-CCM), a betacarboline negative allosteric modulator (NAM) at the GABAA receptor benzodiazepine (BZD) binding site or Midazolam, a benzodiazepine positive allosteric modulator (PAM) at the GABAA receptor benzodiazepine (BZD) binding site. The concentration of the γ2 subunit encoding RNA usually was 5-to 10-fold higher than the RNAs encoding the other subunits. Oocytes were kept in modified Barth's medium (composition in mM: NaCl 88, KCl 1, NaHCO3 4, HEPES 10, MgSO4 0.82, CaNO3 0.33, CaCl2 0.33, pH=7.5) at 20° C. until the experiment.
# Electrophysiological experiments were performed on days 3 to 5 after the micro-injection of mRNA. During the experiment the oocytes were constantly superfused by a solution containing (in mM) NaCl 90, KCl 1, HEPES 5, MgCl2 1, CaCl2 1 (pH 7.4). Oocytes were impaled by two glass microelectrodes (resistance: 0.4 MΩ) which were filled with a solution containing KCl 1M+K-acetate 1.5 M and voltage-clamped to −80 mV. The recordings were performed at room temperature using the Roboocyte two-electrode voltage clamp system (Multichannelsystem). After an initial equilibration period of 1.5 min GABA was added for 1.5 min at a concentration evoking approximately 20% of a maximal current response (EC20). After another rest interval of 2.5 min GABA was again added evoking a response of similar amplitude and shape. […] Current traces were recorded at a digitization rate of 10 Hz during and shortly before and after the GABA application.
# Each compound and concentration was tested on at least 3 oocytes.
# For the analysis, the digitized current traces of the first and second GABA response were superimposed and, if necessary, rescaled to equal maximal amplitudes. The ratio between the two responses during the time interval of test compound application was calculated point by point. The extremum of the resulting “ratio trace” was taken as the efficacy (“Fold increase”) of the compound expressed as “% modulation of GABA EC20” (100*(Fold increase−1)).
# h-GABA-A α5β3γ2 [2] = biological target: T1, h-GABA-A α5β3γ2; experiment: [3H]flumazenil competition binding assay, membranes of HEK293 cells expressing human GABAA receptors; conditions: displacement of [3H]flumazenil 0.5 nM, HEK293 cells expressing human receptors, mean of two determinations; read-out: Ki h-GABA-A α5β3γ2
# Protocol: The affinity of compounds at GABAA receptor subtypes was measured by competition for [3H]flumazenil (85 Ci/mmol; Roche) binding to HEK293 cells expressing rat (stably transfected) or human (transiently transfected) receptors of composition α1β3γ2, α2β3γ2, α3β3γ2 and α5β3γ2.
# Cell pellets were suspended in Krebs-tris buffer (4.8 mM KCl, 1.2 mM CaCl2, 1.2 mM MgCl2, 120 mM NaCl, 15 mM Tris; pH 7.5; binding assay buffer), homogenized by polytron for ca. 20 sec on ice and centrifuged for 60 min at 4° C. (50000 g; Sorvall, rotor: SM24=20000 rpm). The cell pellets were resuspended in Krebs-tris buffer and homogenized by polytron for ca. 15 sec on ice. Protein was measured (Bradford method, Bio-Rad) and aliquots of 1 mL were prepared and stored at −80° C.
# Assays were incubated to equilibrium for 1 hour at 4° C. and harvested onto GF/C uni-filters (Packard) by filtration using a Packard harvester and washing with ice-cold wash buffer (50 mM Tris; pH 7.5). After drying, filter-retained radioactivity was detected by liquid scintillation counting. Ki values were calculated using Excel-Fit (Microsoft) and are the means of two determinations.
# [3] = positive control, maximally effective concentration, 3-6 oocytes per plate
compound,measurement,setting,value
"Cc1ccc(-c2noc(C)c2COc2ccc(C(=O)NC(C)C(F)(F)F)nn2)cn1 (racemic) [Example 34, (RS)-6-((5-methyl-3-(6-methylpyridin-3-yl)isoxazol-4-yl)methoxy)-N-(1,1,1-trifluoropropan-2-yl)pyridazine-3-carboxamide]",Efficacy (GABA) %,h-GABA-A α5β3γ2 [1],84%
same,Fold increase h-GABA-A α5β3γ2 oocyte,h-GABA-A α5β3γ2 [1],1.84
"Cc1ccc(-c2noc(C)c2COc2ccc(C(=O)NC3CCS(=O)(=O)C3)nn2)cn1 (racemic) [Example 36, (RS)—N-(1,1-dioxothiolan-3-yl)-6-((5-methyl-3-(6-methylpyridin-3-yl)-1,2-oxazol-4-yl)methoxy)pyridazine-3-carboxamide]",Efficacy (GABA) %,h-GABA-A α5β3γ2 [1],65%
same,Fold increase h-GABA-A α5β3γ2 oocyte,h-GABA-A α5β3γ2 [1],1.65
"Cc1ccc(-c2noc(C)c2COc2ccc(C(=O)NC3CCOC3)nn2)cn1 (racemic) [Example 45, (RS)-6-((5-methyl-3-(6-methylpyridin-3-yl)isoxazol-4-yl)methoxy)-N-(tetrahydrofuran-3-yl)pyridazine-3-carboxamide]",Efficacy (GABA) %,h-GABA-A α5β3γ2 [1],84%
same,Fold increase h-GABA-A α5β3γ2 oocyte,h-GABA-A α5β3γ2 [1],1.84
"Cc1ccc(-c2noc(C)c2COc2ccc(C(=O)NC3CCOC(C)(C)C3)nn2)cn1 (racemic) [Example 58, (RS)—N-(2,2-dimethyltetrahydropyran-4-yl)-6-((5-methyl-3-(6-methylpyridin-3-yl)isoxazol-4-yl)methoxy)pyridazine-3-carboxamide]",Efficacy (GABA) %,h-GABA-A α5β3γ2 [1],71%
same,Fold increase h-GABA-A α5β3γ2 oocyte,h-GABA-A α5β3γ2 [1],1.71
Cc1ccc(-c2noc(C)c2COc2ccc(C(=O)NC3(C)CCOC3)nn2)cn1 (racemic) [Example 75],Efficacy (GABA) %,h-GABA-A α5β3γ2 [1],89%
same,Fold increase h-GABA-A α5β3γ2 oocyte,h-GABA-A α5β3γ2 [1],1.89
"Cc1ccc(-c2noc(C)c2COc2ccc(C(=O)N[C@@H]3CC[C@@H](O)C3)nn2)cn1 (racemic) [Example 152, N-((1RS,3RS)-3-hydroxycyclopentyl)-6-((5-methyl-3-(6-methylpyridin-3-yl)isoxazol-4-yl)methoxy)pyridazine-3-carboxamide]",Efficacy (GABA) %,h-GABA-A α5β3γ2 [1],85%
same,Fold increase h-GABA-A α5β3γ2 oocyte,h-GABA-A α5β3γ2 [1],1.85
"CO[C@@H]1CC[C@@H](NC(=O)c2ccc(OCc3c(-c4ccc(C)nc4)noc3C)nn2)C1 (racemic) [Example 166, trans-N-((1RS,3RS)-3-methoxycyclopentyl)-6-((5-methyl-3-(6-methylpyridin-3-yl)isoxazol-4-yl)methoxy)pyridazine-3-carboxamide]",Efficacy (GABA) %,h-GABA-A α5β3γ2 [1],70%
same,Fold increase h-GABA-A α5β3γ2 oocyte,h-GABA-A α5β3γ2 [1],1.7
"Cc1ccc(-c2noc(C)c2COc2ccc(C(=O)NC3CCCOCC3)nn2)cn1 (racemic) [Example 187, (RS)-6-((5-methyl-3-(6-methylpyridin-3-yl)isoxazol-4-yl)methoxy)-N-(oxepan-4-yl)pyridazine-3-carboxamide]",Efficacy (GABA) %,h-GABA-A α5β3γ2 [1],88%
same,Fold increase h-GABA-A α5β3γ2 oocyte,h-GABA-A α5β3γ2 [1],1.88
"Cc1ccc(-c2noc(C)c2COc2ccc(C(=O)N[C@@]3(C)CCOC3)nn2)cn1 (single isomer, unassigned) [Example 81]",Ki,h-GABA-A α5β3γ2 [2],10.4 nM
same,Efficacy (GABA) %,h-GABA-A α5β3γ2 [1],80%
same,Fold increase h-GABA-A α5β3γ2 oocyte,h-GABA-A α5β3γ2 [1],1.8
"Cc1ccc(-c2noc(C)c2COc2ccc(C(=O)N[C@]3(C)CCOC3)nn2)cn1 (single isomer, unassigned) [Example 82]",Ki,h-GABA-A α5β3γ2 [2],12.4 nM
same,Efficacy (GABA) %,h-GABA-A α5β3γ2 [1],101%
same,Fold increase h-GABA-A α5β3γ2 oocyte,h-GABA-A α5β3γ2 [1],2.01
"Cc1ccc(-c2noc(C)c2COc2ccc(C(=O)N[C@@H]3CC[C@@](O)(C(F)(F)F)C3)nn2)cn1 (single isomer, unassigned) [Example 149]",Ki,h-GABA-A α5β3γ2 [2],5 nM
same,Efficacy (GABA) %,h-GABA-A α5β3γ2 [1],37%
same,Fold increase h-GABA-A α5β3γ2 oocyte,h-GABA-A α5β3γ2 [1],1.37
"Cc1ccc(-c2noc(C)c2COc2ccc(C(=O)N[C@H]3CC[C@](O)(C(F)(F)F)C3)nn2)cn1 (single isomer, unassigned) [Example 150]",Ki,h-GABA-A α5β3γ2 [2],16.7 nM
same,Efficacy (GABA) %,h-GABA-A α5β3γ2 [1],69%
same,Fold increase h-GABA-A α5β3γ2 oocyte,h-GABA-A α5β3γ2 [1],1.69
"Cc1ccc(-c2noc(C)c2COc2ccc(C(=O)N[C@H]3C[C@H]4CC[C@H]3O4)nn2)cn1 (single isomer, unassigned) [Example 188]",Ki,h-GABA-A α5β3γ2 [2],20.7 nM
same,Efficacy (GABA) %,h-GABA-A α5β3γ2 [1],71%
same,Fold increase h-GABA-A α5β3γ2 oocyte,h-GABA-A α5β3γ2 [1],1.71
"Cc1ccc(-c2noc(C)c2COc2ccc(C(=O)N[C@@H]3C[C@@H]4CC[C@@H]3O4)nn2)cn1 (single isomer, unassigned) [Example 189]",Ki,h-GABA-A α5β3γ2 [2],18.8 nM
same,Efficacy (GABA) %,h-GABA-A α5β3γ2 [1],86%
same,Fold increase h-GABA-A α5β3γ2 oocyte,h-GABA-A α5β3γ2 [1],1.86
"Cc1ccc(-c2noc(C)c2COc2cnc(C(=O)NC3CCOC3)cn2)cn1 (stereo in doubt) [Example 92, (S)-5-((5-Methyl-3-(6-methylpyridin-3-yl)isoxazol-4-yl)methoxy)-N-(tetrahydrofuran-3-yl)pyrazine-2-carboxamide]",Ki,h-GABA-A α5β3γ2 [2],13.2 nM
same,Efficacy (GABA) %,h-GABA-A α5β3γ2 [1],67%
same,Fold increase h-GABA-A α5β3γ2 oocyte,h-GABA-A α5β3γ2 [1],1.67
"Cc1ccc(-c2noc(C)c2COc2ccc(C(=O)NC3CCOCC3)cn2)cn1 [Example 1, 6-((5-methyl-3-(6-methyl-3-pyridyl)isoxazol-4-yl)methoxy)-N-tetrahydropyran-4-yl-pyridine-3-carboxamide]",Ki,h-GABA-A α5β3γ2 [2],4.8 nM
same,Efficacy (GABA) %,h-GABA-A α5β3γ2 [1],42%
same,Fold increase h-GABA-A α5β3γ2 oocyte,h-GABA-A α5β3γ2 [1],1.42
"Cc1ccc(-c2nocc2COc2ccc(C(=O)NC3CCOCC3)cn2)cn1 [Example 44, 6-((3-(6-methyl-3-pyridyl)isoxazol-4-yl)methoxy)-N-tetrahydropyran-4-yl-pyridine-3-carboxamide]",Efficacy (GABA) %,h-GABA-A α5β3γ2 [1],54%
"Cc1ccc(-c2noc(C)c2COc2ccc(C(=O)NC(C)(C)CCS(C)(=O)=O)nn2)cn1 [Example 80, 6-((5-methyl-3-(6-methylpyridin-3-yl)isoxazol-4-yl)methoxy)-N-(2-methyl-4-(methylsulfonyl)butan-2-yl)pyridazine-3-carboxamide]",Efficacy (GABA) %,h-GABA-A α5β3γ2 [1],108%
same,Fold increase h-GABA-A α5β3γ2 oocyte,h-GABA-A α5β3γ2 [1],2.08
"Cc1ccc(-c2noc(C)c2COc2ccc(C(=O)N3C[C@@H]4C[C@H]3CO4)nn2)cn1 [Example 151, (1S,4S)-2-oxa-5-azabicyclo[2.2.1]heptan-5-yl(6-((5-methyl-3-(6-methylpyridin-3-yl)isoxazol-4-yl)methoxy)pyridazin-3-yl)methanone]",Efficacy (GABA) %,h-GABA-A α5β3γ2 [1],68%
"Cc1onc(-c2ccc(Cl)nc2)c1COc1ccc(C(=O)N[C@H]2CCOC2)nn1 [Example 160, (S)-6-((3-(6-chloropyridin-3-yl)-5-methylisoxazol-4-yl)methoxy)-N-(tetrahydrofuran-3-yl)pyridazine-3-carboxamide]",Efficacy (GABA) %,h-GABA-A α5β3γ2 [1],42%
"O=C(N[C@H]1CCOC1)c1ccc(OCc2c(-c3ccc(Cl)nc3)noc2C2CC2)nn1 [Example 179, (S)-6-((3-(6-chloropyridin-3-yl)-5-cyclopropylisoxazol-4-yl)methoxy)-N-(tetrahydrofuran-3-yl)pyridazine-3-carboxamide]",Efficacy (GABA) %,h-GABA-A α5β3γ2 [1],82%
"Cc1ncc2n1-c1ccc(Cl)cc1C(c1ccccc1F)=NC2 [Midazolam, reference compound]",Fold increase,h-GABA-A α5β3γ2 [1]; [3],~2.5
same,potentiation of the GABA-induced current,h-GABA-A α5β3γ2 [1]; [3],~150%
"COC(=O)c1cc2c(cn1)[nH]c1ccccc12 [β-CCM, Beta-CCM, reference compound]",Fold increase,h-GABA-A α5β3γ2 [1]; [3],~0.5
same,inhibition of the GABA-evoked current,h-GABA-A α5β3γ2 [1]; [3],~50%
